How the values were obtained:
rice = assay: Test B flood test rice; type: in vivo, Oryza sativa
How it was run: (§1)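 Plants were grown to the 2-leaf stage before treatment with test chemical, then held in a greenhouse for twelve to sixteen days. Injury was visually rated against untreated controls on a 0–10 scale, where 0 is no effect and 10 is complete control.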

duck salad = assay: Test B flood test duck salad; type: in vivo, Heteranthera limosa
How it was run: as §1

pigweed = assay: Test B pre/postemergence pigweed; type: in vivo, Amaranthus retroflexus
How it was run: (§2)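 Test chemicals in a non-phytotoxic solvent mixture with surfactant were sprayed preemergence onto planted seeds and postemergence onto plants 2 to 18 cm tall (1- to 4-leaf stage). After twelve to sixteen days in a greenhouse, injury was visually rated against untreated controls from 0 (no effect) to 10 (complete control).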

velvetleaf = assay: Test B pre/postemergence velvetleaf; type: in vivo, Abutilon theophrasti
How it was run: as §2

bedstraw = assay: Test B pre/postemergence bedstraw; type: in vivo, Galium aparine
How it was run: as §2

cocklebur = assay: Test B pre/postemergence cocklebur; type: in vivo, Xanthium strumarium
How it was run: as §2

sugar beet = assay: Test B pre/postemergence sugar beet; type: in vivo, Beta vulgaris
How it was run: as §2

wild oat = assay: Test B pre/postemergence wild oat; type: in vivo, Avena fatua
How it was run: as §2

smallflower flatsedge = assay: Test B flood test smallflower flatsedge; type: in vivo, Cyperus difformis
How it was run: as §1

surinam grass = assay: Test B pre/postemergence surinam grass; type: in vivo, Brachiaria decumbens
How it was run: as §2

corn = assay: Test B pre/postemergence corn; type: in vivo, Zea mays
How it was run: as §2

rape = assay: Test B pre/postemergence rape; type: in vivo, Brassica napus
How it was run: as §2

giant foxtail = assay: Test B pre/postemergence giant foxtail; type: in vivo, Setaria faberii
How it was run: as §2

soybean = assay: Test B pre/postemergence soybean; type: in vivo, Glycine max
How it was run: as §2

wheat = assay: Test B pre/postemergence wheat; type: in vivo, Triticum aestivum
How it was run: as §2

purple nutsedge = assay: Test B pre/postemergence purple nutsedge; type: in vivo, Cyperus rotundus
How it was run: as §2

[1] = Rate 31 g/ha, Pre-emergence section (flood test species), scale 0 to 10
[2] = Rate 62 g/ha, headed Pre-emergence (flood test species), scale 0 to 10 (0 no effect, 10 complete control)
[3] = Rate 125 g/ha, Pre-emergence, flood test species, scale 0 to 10 where 0 is no effect and 10 is complete control
[4] = Rate 250 g/ha, Pre-emergence, flood-test species, scale 0 to 10, 0 is no effect, 10 is complete control
[5] = Preemergence, Rate 31 g/ha, visual rating, scale 0 to 10 (0 no effect, 10 complete control)
[6] = Preemergence, Rate 62 g/ha, scale of 0 to 10 where 0 is no effect and 10 is complete control
[7] = Preemergence, Rate 250 g/ha, scale of 0 to 10 where 0 is no effect and 10 is complete control
[8] = Rate 31 g/ha, Postemergence, scale 0 to 10
[9] = Rate 62 g/ha, Postemergence, scale of 0 to 10 where 0 is no effect and 10 is complete control
[10] = Rate 125 g/ha, Postemergence, scale 0 to 10
[11] = Rate 125 g/ha, Preemergence, scale of 0 to 10 where 0 is no effect and 10 is complete control

CCCCn1c(=O)on(C(=O)N(c2ccc(F)cc2)C(C)C)c1=O [Compound 221]
Rice plant response rating (rice; [1]): 0 | Rice plant response rating (rice; [2]): 0 | Rice plant response rating (rice; [3]): 0 | Rice plant response rating (rice; [4]): 0 | Ducksalad plant response rating (duck salad; [1]): 0 | Ducksalad plant response rating (duck salad; [2]): 0 | Ducksalad plant response rating (duck salad; [3]): 0 | Ducksalad plant response rating (duck salad; [4]): 0 | Redroot pigweed plant response rating (pigweed; [5]): 7 | Redroot pigweed plant response rating (pigweed; [6]): 9 | Redroot pigweed plant response rating (pigweed; [7]): 10 | Redroot pigweed plant response rating (pigweed; [8]): 2 | Redroot pigweed plant response rating (pigweed; [9]): 6 | Redroot pigweed plant response rating (pigweed; [10]): 8 | Redroot pigweed plant response rating (pigweed; [11]): 10 | Plant response rating (0 to 10; 0 is no effect, 10 is complete control), Redroot pigweed (pigweed; Rate 250 g/ha, Postemergence): 8 | Velvetleaf plant response rating (velvetleaf; [5]): 0 | Velvetleaf plant response rating (velvetleaf; [6]): 0 | Velvetleaf plant response rating (velvetleaf; [7]): 0 | Velvetleaf plant response rating (velvetleaf; [9]): 0 | Velvetleaf plant response rating (velvetleaf; [10]): 0 | Velvetleaf plant response rating (velvetleaf; [11]): 0 | Plant response rating (0 to 10; 0 is no effect, 10 is complete control), Velvetleaf (velvetleaf; Rate 250 g/ha, Postemergence): 0 | Bedstraw plant response rating (bedstraw; [5]): 0 | Bedstraw plant response rating (bedstraw; [6]): 0 | Bedstraw plant response rating (bedstraw; [7]): 4 | Bedstraw plant response rating (bedstraw; [8]): 2 | Bedstraw plant response rating (bedstraw; [9]): 2 | Bedstraw plant response rating (bedstraw; [10]): 7 | Bedstraw plant response rating (bedstraw; [11]): 4 | Plant response rating (0 to 10; 0 is no effect, 10 is complete control), Bedstraw (bedstraw; Rate 250 g/ha, Postemergence): 9 | Cocklebur plant response rating (cocklebur; [6]): 0 | Cocklebur plant response rating (cocklebur; [7]): 0 | Cocklebur plant response rating (cocklebur; [8]): 0 | Cocklebur plant response rating (cocklebur; [9]): 0 | Cocklebur plant response rating (cocklebur; [10]): 0 | Cocklebur plant response rating (cocklebur; [11]): 0 | Plant response rating (0 to 10; 0 is no effect, 10 is complete control), Cocklebur (cocklebur; Rate 250 g/ha, Postemergence): 0 | Sugarbeets plant response rating (sugar beet; [5]): 0 | Sugarbeets plant response rating (sugar beet; [6]): 0 | Sugarbeets plant response rating (sugar beet; [7]): 10 | Sugarbeets plant response rating (sugar beet; [9]): 0 | Sugarbeets plant response rating (sugar beet; [10]): 4 | Sugarbeets plant response rating (sugar beet; [11]): 4 | Plant response rating (0 to 10; 0 is no effect, 10 is complete control), Sugarbeets (sugar beet; Rate 250 g/ha, Postemergence): 4 | Wild oats plant response rating (wild oat; [5]): 2 | Wild oats plant response rating (wild oat; [6]): 2 | Wild oats plant response rating (wild oat; [7]): 4 | Wild oats plant response rating (wild oat; [9]): 0 | Wild oats plant response rating (wild oat; [10]): 0 | Wild oats plant response rating (wild oat; [11]): 2 | Plant response rating (0 to 10; 0 is no effect, 10 is complete control), Wild oats (wild oat; Rate 250 g/ha, Postemergence): 2 | S. Flatsedge plant response rating (smallflower flatsedge; [1]): 0 | S. Flatsedge plant response rating (smallflower flatsedge; [2]): 0 | S. Flatsedge plant response rating (smallflower flatsedge; [3]): 0 | S. Flatsedge plant response rating (smallflower flatsedge; [4]): 0 | B. signalgrass plant response rating (surinam grass; [5]): 2 | B. signalgrass plant response rating (surinam grass; [6]): 5 | B. signalgrass plant response rating (surinam grass; Preemergence, Rate 250 g/ha, scale 0 to 10, 0 is no effect, 10 is complete control): 6 | B. signalgrass plant response rating (surinam grass; [8]): 0 | B. signalgrass plant response rating (surinam grass; [9]): 0 | B. signalgrass plant response rating (surinam grass; Rate 125 g/ha, Postemergence, scale 0 (no effect) to 10 (complete control)): 3 | B. signalgrass plant response rating (surinam grass; [11]): 5 | Plant response rating (0 to 10; 0 is no effect, 10 is complete control), B. signalgrass (surinam grass; Rate 250 g/ha, Postemergence): 8 | Corn plant response rating (corn; [5]): 0 | Corn plant response rating (corn; [6]): 0 | Corn plant response rating (corn; [7]): 0 | Corn plant response rating (corn; [8]): 0 | Corn plant response rating (corn; [9]): 0 | Corn plant response rating (corn; [10]): 0 | Corn plant response rating (corn; [11]): 0 | Plant response rating (0 to 10; 0 is no effect, 10 is complete control), Corn (corn; Rate 250 g/ha, Postemergence): 0 | Rape plant response rating (rape; [5]): 0 | Rape plant response rating (rape; [6]): 0 | Rape plant response rating (rape; [7]): 8 | Rape plant response rating (rape; [8]): 0 | Rape plant response rating (rape; [9]): 0 | Rape plant response rating (rape; [10]): 4 | Rape plant response rating (rape; [11]): 6 | Plant response rating (0 to 10; 0 is no effect, 10 is complete control), Rape (rape; Rate 250 g/ha, Postemergence): 4 | Giant foxtail plant response rating (giant foxtail; [5]): 5 | Giant foxtail plant response rating (giant foxtail; [6]): 5 | Giant foxtail plant response rating (giant foxtail; [7]): 10 | Giant foxtail plant response rating (giant foxtail; [8]): 0 | Giant foxtail plant response rating (giant foxtail; [9]): 2 | Giant foxtail plant response rating (giant foxtail; [10]): 7 | Giant foxtail plant response rating (giant foxtail; [11]): 9 | Plant response rating (0 to 10; 0 is no effect, 10 is complete control), Giant foxtail (giant foxtail; Rate 250 g/ha, Postemergence): 7 | Soybean plant response rating (soybean; [5]): 0 | Soybean plant response rating (soybean; [6]): 0 | Soybean plant response rating (soybean; [7]): 0 | Soybean plant response rating (soybean; [9]): 2 | Soybean plant response rating (soybean; [10]): 2 | Soybean plant response rating (soybean; [11]): 0 | Plant response rating (0 to 10; 0 is no effect, 10 is complete control), Soybean (soybean; Rate 250 g/ha, Postemergence): 3 | Wheat plant response rating (wheat; [5]): 0 | Wheat plant response rating (wheat; [6]): 0 | Wheat plant response rating (wheat; [7]): 2 | Wheat plant response rating (wheat; [9]): 0 | Wheat plant response rating (wheat; [10]): 2 | Wheat plant response rating (wheat; [11]): 2 | Plant response rating (0 to 10; 0 is no effect, 10 is complete control), Wheat (wheat; Rate 250 g/ha, Postemergence): 4 | Nutsedge plant response rating (purple nutsedge; [5]): 0 | Nutsedge plant response rating (purple nutsedge; [6]): 0 | Nutsedge plant response rating (purple nutsedge; [7]): 0 | Nutsedge plant response rating (purple nutsedge; [8]): 0 | Nutsedge plant response rating (purple nutsedge; [9]): 0 | Nutsedge plant response rating (purple nutsedge; [10]): 0 | Nutsedge plant response rating (purple nutsedge; [11]): 0 | Plant response rating (0 to 10; 0 is no effect, 10 is complete control), Nutsedge (purple nutsedge; Rate 250 g/ha, Postemergence): 0

Source: patent US6737383B1, “Herbicidal oxadiazolidines” (priority 1999, dated 2004)
